Consider one molecule from patent publication US9551722B2, “Amyloid binding agents” (The Regents of the University of California, priority 2009, dated 2017).

The target of series [1] is T1, interaction of the aggregated Aβ peptide with a monoclonal anti-Aβ IgG (Homo sapiens, UniProt P05067).
T1 construct: Aggregated Aβ peptides were generated from synthetic Aβ(1-42) peptides
The experiment in a line: Semi-quantitative ELISA: inhibition of IgG-Aβ fibril interactions. Format: binding. Conditions: anti-Aβ IgG clone 6E10. On the procedure:
The association of the synthesized compounds with aggregated Aβ peptides was tested using a semi-quantitative ELISA based assay developed by Yang and co-workers. See P. Inbar, J. Yang, Bioorg. Med. Chem. Lett. 2006, 16:1076-1079; P. Inbar, C. Q. Li, S. A. Takayama, M. R. Bautista, J. Yang, ChemBioChem 2006, 7:1563-1566; P. Inbar, M. R. Bautista, S. A. Takayama, J. Yang, Anal. Chem. 2008, 80:3502-3506. The assay is based on screening for molecules that inhibit the interaction of the aggregated Aβ peptide with a monoclonal anti-Aβ IgG raised against residues 1-17 of Aβ. Table 4 provides the concentrations of the compounds corresponding to 50% inhibition (IC50) of the IgG-Aβ interactions as well as the maximal percentage of the IgG's inhibited from binding to the fibrils. […] The maximum inhibition, a measure of the extent of surface coating of the aggregated peptide by the compounds, was determined to be between 40-98% (Table 4). See P. Inbar, J. Yang, Bioorg. Med. Chem. Lett. 2006, 16:1076-1079; P. Inbar, C. Q. Li, S. A. Takayama, M. R. Bautista, J. Yang, ChemBioChem 2006, 7:1563-1566; P. Inbar, M. R. Bautista, S. A. Takayama, J. Yang, Anal. Chem. 2008, 80:3502-3506. […] Specifically, while the maximum inhibition is between 81-98% for the phenyl compounds, it decreases to 58% for the longer naphthalene compound 11 and to 40% for the more conjugated stilbene 19.
Aggregated Aβ peptides were generated from synthetic Aβ(1-42) peptides by dissolving 30 μg of peptide in 90 μL of nanopure water (pH 5-6) and incubating at 37° C. for ≧72 h without agitation. Each well of a 96-well plate (well volume 0.4 mL; clear, flat bottom polypropylene) was coated for 3 h at 25° C. with 50 μL of 1.3 μM solution of Aβ peptides in phosphate-buffered saline (PBS, 10 mM NaH2PO4/Na2HPO4, 138 mM NaCl, 2.7 mM KCl, pH 7.4). After removal of the excess sample, 50 μL solutions of compounds in PBS buffer (various concentrations were obtained by diluting a stock solution with PBS buffer) were incubated in the wells for 12 h. […] The excess solutions were then removed and all wells were blocked for 30 min by adding 300 μL of a 1% (w/v) solution of bovine serum albumin in PBS buffer (BSA/PBS). On occasion, an additional blocking step was performed prior to incubation with solutions of small molecules. The blocking solution was discarded and the wells were washed once with 300 μL of PBS buffer. Wells were incubated for 1 h with 50 μL of a 1.1 nM solution (in 1% BSA/PBS, dilution 1:6000) of anti-Aβ IgG (clone 6E10, monoclonal, mouse), followed by removal of the solution. The wells were washed twice with 300 μL of PBS buffer and incubated for 60 min with 50 μL of the secondary IgG (anti-mouse IgG H+L, polyclonal, rabbit) conjugated with alkaline phosphatase (6.8 nM in 1% BSA/PBS, dilution 1:1000). The solution was discarded, and the wells were washed twice with 300 μL PBS buffer. Bound secondary IgGs were detected by the addition of 50 μL of a p-nitrophenyl phosphate solution (2.7 mM, in 100 mM diethanol amine/0.5 mM magnesium chloride, pH 9.8). Absorbance intensities were determined at 405 nm using a UV-vis spectroscopic plate reader (Sprectramax 190, Molecular Devices, Sunnyvale, Calif.). Each run was performed five times and averaged. Error bars represent standard deviations. Graphs were plotted and fitted with the sigmoid curve fitting.

The target in series [2] is T2, pre-aggregated Aβ(1-42) peptide (Homo sapiens, UniProt P05067).
T2 construct: preaggregated Aβ(1-42) peptides
The experiment in a line: Apparent binding constant (Kd) by double reciprocal fluorescence plot. Conditions: compound 10, 5, 2.5, 1.25 μM; 5.0 μM pre-aggregated Aβ(1-42); PBS pH 7.4. On the procedure: We also measured the apparent binding constants (Kd) of the compounds (in concentrations of 10, 5, 2.5 and 1.25 μM) to 5.0 μM pre-aggregated Aβ(1-42) peptide. The Kd can be measured from the double reciprocal of the fluorescent maximum and the concentration of the compound. See H. LeVine III, Protein Sci. 1993, 2:404-410. […] [22,] See LeVine, Id.; Lockhart, L. Ye, D. B. Judd, A. T. Merritt, P. N. Lowe, J. L. Morgenstern, G. Z. Hong, A. D. Gee, J. Brown, J. Biol. Chem. 2005, 280:7677-7684; M. Biancalana, K. Makabe, A. Koide, S. Koide, J. Mol. Biol. 2008, 383:205-213; M. Biancalana, K. Makabe, A. Koide, S. Koide, J. Mol. Biol. 2009, 385:1052-1063. The Kd corresponds to the −1/(x-intercept) of the linear regression.
Pre-aggregated Aβ(1-42) (5 μM final concentration) was mixed with various concentrations of compounds described herein (10, 5, 2.5, 1.25 μM) in PBS buffer (pH 7.4) and their fluorescence was measured. The negative inverse of the x-intercept of the linear regression, that was drawn between the double reciprocal of the fluorescence intensity maximum and concentration of the compound, represents the compound binding constant (Kd) to Aβ(1-42).
In order to quantify the dissociation constants (Kd's) for the binding of fluorescent compounds with aggregated β-amyloid peptides, we used the method described by LeVine (see H. LeVine III, Protein Sci. 1993, 2, 404-410). This method is similar to the method described by Benesi-Hildebran (see C. Yang, L. Liu, T. W. Mu, Q. X. Guo, Anal. Sci. 2000, 16, 537-539). Here, the fluorescence of the compound was measured with and without the addition of the aggregated peptides in solution. The relative fluorescence enhancement of the compound upon binding to aggregated β-amyloid peptides was determined by taking the difference between F (fluorescence after the addition of aggregated peptides) and F (fluorescence before the addition of aggregated peptides).
In order to estimate the binding constant (Kd) for the compound-Aβ complexes from the fluorescence studies, we made the following assumptions: • 1. All compounds are completely in solution and free of any significant competing binding process such as self-aggregation. • 2. The concentration of unbound compounds can be approximated as close to the total concentration of the compounds. • 3. The binding sites in the aggregated Aβ peptides are not completely occupied at the concentration of Aβ-binding compounds used for the fluorescence studies (i.e., the experiments are carried out under non-saturated binding conditions).
FIG. 2 and FIG. 6 provide double reciprocal plots of the measured fluorescence versus total concentration of compound [GO]. Assuming that [G] can be approximated as close to [GO] (assumption 2), we can obtain estimates for the Kd's of the compound-Aβ complexes from the x-intercept of the linear fits of the data for each compound.

Series [3] is described as follows: Solubility in aqueous media (observation). The class given is physicochemical.

SMILES strings stand for the structures. pKd: −log10 of the molar value.

T1 sequence (P05067 672-713 limits assumed): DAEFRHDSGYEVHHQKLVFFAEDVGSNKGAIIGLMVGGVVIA
T2 sequence (P05067 672-713 limits assumed): as above

In series [1] (50% inhibition of IgG-Aβ interactions), `COCCOCCOCCOC(=O)/C(C#N)=C/c1ccc(/C=C/c2ccc(N(C)C)cc2)cc1` [Cmpd 19, (E)-2-(2-(2-methoxyethoxyl)ethoxy)ethyl-cyano-3-(4-(4(dimethylamino)styryl)phenyl)acrylate] came in with an IC50 of 33.6 µM. Further, in series [1] (maximal percentage of IgG inhibited from binding to the fibrils), the “Maximum % inhibition (ELISA)” value is on record as 40%. Also, the pKd in series [2] was 5.85. For the same molecule, in series [3], the “Solubility in aqueous media” value was “poor solubility in aqueous media”.

The term IC50 denotes the concentration that inhibits the measured activity by half. A high value points to a need for much substance. The pKd is the Kd on a negative log10 scale, so that one unit is a factor of ten.
